Data as given in PubChem BioAssay AID248 (DTP/NCI, 2004).
Inconclusive results and toxic doses are left out. Cut-off read from the data, not from the text of the source: active = T/C of 150% or more; inactive = T/C below 125%.

Test system: L1210 leukemia ip in BDF1 mice, survival T/C
Assay: NCI In Vivo Anticancer Drug Screen. Data for tumor model L1210 Leukemia (intraperitoneal) in B6D2F1 (BDF1) mice
Conditions: endpoint: mean survival time, higher = longer survival
Method in brief: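 Transplantable tumor model; survival measured in treated vs vehicle control mice. Value = treated/control.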

[1] = dose: 100.0 mg/kg/injection, schedule: Q01DX009 (ip), vehicle: saline with Tween-80
[2] = dose: 200.0 mg/kg/injection, schedule: Q01DX009 (ip), vehicle: saline with Tween-80
[3] = dose: 100.0 mg/kg/injection, schedule: Q04DX003 (ip), vehicle: saline
[4] = dose: 200.0 mg/kg/injection, schedule: Q04DX003 (ip), vehicle: saline
[5] = dose: 400.0 mg/kg/injection, schedule: Q04DX003 (ip), vehicle: saline
[6] = dose: 100.0 mg/kg/injection, schedule: Q04DX002 (ip), vehicle: saline with Tween-80
[7] = dose: 200.0 mg/kg/injection, schedule: Q04DX002 (ip), vehicle: saline with Tween-80

Measured: T/C

CCN(CC)CCO[C@H]1CC[C@@]2(C)C(=CC[C@@H]3[C@@H]2CC[C@]2(C)C(=O)CC[C@@H]32)C1
inactive: dose: 50.0 mg/kg/injection, schedule: Q01DX001 (sc), vehicle: steriod suspending solution 101 % of control | dose: 100.0 mg/kg/injection, schedule: Q01DX001 (sc), vehicle: steriod suspending solution 90 % of control

Cc1ccc([N+](=O)[O-])cc1NC(=O)N(CCC#N)C1CCCCC1
inactive: dose: 100.0 mg/kg/injection, schedule: Q01DX009 (ip), vehicle: Klucel (hydroxypropylcellulose) (HPC) 101 % of control | dose: 200.0 mg/kg/injection, schedule: Q01DX009 (ip), vehicle: Klucel (hydroxypropylcellulose) (HPC) 105 % of control | dose: 400.0 mg/kg/injection, schedule: Q01DX009 (ip), vehicle: Klucel (hydroxypropylcellulose) (HPC) 95 % of control

CCCNC(C)(C)C(SS)c1ccc(Cl)cc1 (stereo not drawn)
inactive: dose: 100.0 mg/kg/injection, schedule: Q01DX009 (ip), vehicle: saline sonified 97 % of control | dose: 100.0 mg/kg/injection, schedule: Q04DX003 (ip), vehicle: saline sonified 106 % of control | dose: 200.0 mg/kg/injection, schedule: Q01DX009 (ip), vehicle: saline sonified 107 % of control | dose: 200.0 mg/kg/injection, schedule: Q04DX003 (ip), vehicle: saline sonified 95 % of control | dose: 400.0 mg/kg/injection, schedule: Q01DX009 (ip), vehicle: saline sonified 96 % of control | dose: 400.0 mg/kg/injection, schedule: Q04DX003 (ip), vehicle: saline sonified 95 % of control

CSc1ccc(OC(C)=O)cc1
inactive: dose: 50.0 mg/kg/injection, schedule: Q01DX009 (ip), vehicle: saline with Tween-80 94 % of control | [1] 91 % of control | [2] 102 % of control

Cc1cc(=O)n(-c2ccccc2)n1C
inactive: [3] 104 % of control | [4] 106 % of control | [5] 106 % of control

CCCCOc1ccc(OCCCC)cc1
inactive: dose: 100.0 mg/kg/injection, schedule: Q04DX002 (ip), vehicle: Klucel (hydroxypropylcellulose) (HPC) 105 % of control | dose: 200.0 mg/kg/injection, schedule: Q04DX002 (ip), vehicle: Klucel (hydroxypropylcellulose) (HPC) 97 % of control | dose: 400.0 mg/kg/injection, schedule: Q04DX002 (ip), vehicle: Klucel (hydroxypropylcellulose) (HPC) 101 % of control

C=CCC(CC)C(=O)Cl (stereo not drawn)
inactive: [1] 104 % of control | dose: 100.0 mg/kg/injection, schedule: Q04DX003 (ip), vehicle: saline with Tween-80 94 % of control | [2] 91 % of control | dose: 200.0 mg/kg/injection, schedule: Q04DX003 (ip), vehicle: saline with Tween-80 94 % of control | dose: 400.0 mg/kg/injection, schedule: Q01DX009 (ip), vehicle: saline with Tween-80 91 % of control | dose: 400.0 mg/kg/injection, schedule: Q04DX003 (ip), vehicle: saline with Tween-80 102 % of control

CCCC(=O)CC(=O)C(F)(F)F.CCCC(=O)CC(=O)C(F)(F)F.CCCC(=O)CC(=O)C(F)(F)F.[Er]
inactive: dose: 100.0 mg/kg/injection, schedule: Q01DX009 (ip), vehicle: other 104 % of control | dose: 100.0 mg/kg/injection, schedule: Q04DX003 (ip), vehicle: other 110 % of control | dose: 200.0 mg/kg/injection, schedule: Q01DX009 (ip), vehicle: other 106 % of control | dose: 200.0 mg/kg/injection, schedule: Q04DX003 (ip), vehicle: other 107 % of control | dose: 400.0 mg/kg/injection, schedule: Q04DX003 (ip), vehicle: other 108 % of control

CCCCC#CCCl
inactive: dose: 100.0 mg/kg/injection, schedule: Q01DX001 (ip), vehicle: saline 102 % of control | dose: 100.0 mg/kg/injection, schedule: Q01DX009 (ip), vehicle: saline 94 % of control | dose: 200.0 mg/kg/injection, schedule: Q01DX001 (ip), vehicle: saline 103 % of control | dose: 400.0 mg/kg/injection, schedule: Q01DX001 (ip), vehicle: saline 111 % of control

CC(=O)OC1C=CCC2C(=O)C34CC=CC(OC(C)=O)C3(C(=O)c3ccccc3C4=O)C(=O)C12 (stereo not drawn)
inactive: dose: 0.25 mg/kg/injection, schedule: Q04DX003 (ip), vehicle: water 97 % of control | dose: 0.5 mg/kg/injection, schedule: Q04DX003 (ip), vehicle: water 102 % of control | dose: 1.0 mg/kg/injection, schedule: Q04DX003 (ip), vehicle: water 95 % of control | dose: 2.0 mg/kg/injection, schedule: Q04DX003 (ip), vehicle: water 98 % of control | dose: 4.0 mg/kg/injection, schedule: Q04DX003 (ip), vehicle: water 102 % of control | dose: 8.0 mg/kg/injection, schedule: Q04DX003 (ip), vehicle: water 107 % of control | dose: 16.0 mg/kg/injection, schedule: Q04DX003 (ip), vehicle: saline 96 % of control | dose: 16.0 mg/kg/injection, schedule: Q04DX003 (ip), vehicle: water 92 % of control | dose: 32.0 mg/kg/injection, schedule: Q04DX003 (ip), vehicle: saline 98 % of control | dose: 64.0 mg/kg/injection, schedule: Q04DX003 (ip), vehicle: saline 102 % of control

O=C(O)c1ccccc1/C=C1/Nc2ccccc2C1=O
inactive: dose: 10.0 mg/kg/injection, schedule: Q01DX001 (ip), vehicle: acetone 102 % of control | dose: 20.0 mg/kg/injection, schedule: Q01DX001 (ip), vehicle: acetone 94 % of control

Cc1cc(C)c(O)c(Br)c1
inactive: [6] 103 % of control | [7] 96 % of control | dose: 400.0 mg/kg/injection, schedule: Q04DX002 (ip), vehicle: saline with Tween-80 107 % of control

CN(C)[C](=O)[Pb]([c]1ccccc1)([c]1ccccc1)[c]1ccccc1
inactive: [6] 98 % of control | [7] 98 % of control

COc1cccc(NC2=CC(=O)C(=O)c3ccccc32)c1
inactive: dose: 100.0 mg/kg/injection, schedule: Q01DX001 (ip), vehicle: other 88 % of control | dose: 200.0 mg/kg/injection, schedule: Q01DX001 (ip), vehicle: other 92 % of control | dose: 400.0 mg/kg/injection, schedule: Q01DX001 (ip), vehicle: other 101 % of control

NCC(=O)NO
inactive: dose: 75.0 mg/kg/injection, schedule: Q01DX009 (ip), vehicle: saline 99 % of control | dose: 90.0 mg/kg/injection, schedule: Q01DX015 (ip), vehicle: water 92 % of control | [3] 108 % of control | dose: 133.0 mg/kg/injection, schedule: Q01DX015 (ip), vehicle: water 94 % of control | dose: 150.0 mg/kg/injection, schedule: Q01DX009 (ip), vehicle: saline 99 % of control | dose: 200.0 mg/kg/injection, schedule: Q01DX015 (ip), vehicle: water 94 % of control | [4] 106 % of control | dose: 300.0 mg/kg/injection, schedule: Q01DX009 (ip), vehicle: saline 92 % of control | [5] 98 % of control

C/C(=N/OC(=O)N(C)C)c1ccccc1
inactive: dose: 100.0 mg/kg/injection, schedule: Q01DX001 (ip), vehicle: carboxymethylcellulose (CMC) 104 % of control | dose: 200.0 mg/kg/injection, schedule: Q01DX001 (ip), vehicle: carboxymethylcellulose (CMC) 101 % of control | dose: 400.0 mg/kg/injection, schedule: Q01DX001 (ip), vehicle: carboxymethylcellulose (CMC) 90 % of control

CCOC(=O)c1c[nH]c(=O)n(-c2ccccc2)c1=O
inactive: dose: 100.0 mg/kg/injection, schedule: Q04DX003 (ip), vehicle: Klucel (hydroxypropylcellulose) (HPC) 109 % of control | dose: 200.0 mg/kg/injection, schedule: Q04DX003 (ip), vehicle: Klucel (hydroxypropylcellulose) (HPC) 92 % of control | dose: 400.0 mg/kg/injection, schedule: Q04DX003 (ip), vehicle: Klucel (hydroxypropylcellulose) (HPC) 106 % of control

C[N+]1(C)CCC2=CC3C=CC2C1C=C3 (stereo not drawn)
inactive: dose: 12.5 mg/kg/injection, schedule: Q01DX009 (ip), vehicle: saline 95 % of control | dose: 25.0 mg/kg/injection, schedule: Q01DX009 (ip), vehicle: saline 93 % of control | dose: 50.0 mg/kg/injection, schedule: Q01DX009 (ip), vehicle: saline 90 % of control
